Experimental data as given in US20180353462A1, “[…] AGENTS […] FLAVONOID DERIVATIVES TARGETING KINASES, SIRTUINS AND ONCOGENIC AGENTS FOR THE TREATMENT OF CANCERS” (priority 2015, published 2018).

What was measured:
Conditions in all cases: Table 1 kinase panel
Aurora A = target: T1, Aurora A (Homo sapiens, UniProt O14965); assay: Kinase competition binding assay, Aurora A
T1 construct: made in house
T1 sequence (O14965 1-403): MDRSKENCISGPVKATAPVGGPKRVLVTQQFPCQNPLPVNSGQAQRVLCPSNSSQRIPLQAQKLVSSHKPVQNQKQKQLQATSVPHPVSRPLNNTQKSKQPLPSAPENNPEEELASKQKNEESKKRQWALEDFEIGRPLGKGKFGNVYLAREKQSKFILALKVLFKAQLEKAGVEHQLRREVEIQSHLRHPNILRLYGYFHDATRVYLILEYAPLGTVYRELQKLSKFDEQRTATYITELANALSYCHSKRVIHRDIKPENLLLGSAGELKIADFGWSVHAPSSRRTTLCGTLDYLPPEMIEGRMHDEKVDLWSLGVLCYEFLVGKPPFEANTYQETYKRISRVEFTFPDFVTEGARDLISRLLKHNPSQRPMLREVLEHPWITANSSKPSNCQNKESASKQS
Experimental: (§1) Cannabis flavonoids and their analogs were subjected to kinase inhibition assay. The compounds were first screened at a single concentration of 10 μM in the primary assay. […]. To determine the kd or IC50 values, competition binding assays were established, authenticated and executed as described previously. Fabian et al., “A Small Molecule-Kinase Interaction Map For Clinical Kinase Inhibitors.”, Nat Biotechnol, 23(3):329-36, Epub (2005). See also, Karaman et al., “A Quantitative Analysis Of Kinase Inhibitor Selectivity”, Nat. Biotechnol. […] For most assays, kinases were fused to T7 phage strains (Fabian, supra) and for the other assays, kinases were produced in HEK-293 cells after which they were tagged with DNA for quantitative PCR detection. In general, full-length constructs were used for small, single domain kinases, and catalytic domain constructs for large multi-domain kinases. The binding assays utilized streptavidin-coated magnetic beads treated with biotinylated small molecule ligands for 30 minutes at room temperature which generated affinity resins for the kinase assays. The liganded beads were blocked with excess biotin and washed with blocking buffer (SeaBlock (Pierce), 1% BSA, 0.05% Tween 20, 1 mM DTT) to remove unbound ligand and to reduce non-specific phage binding. […] Test compounds were prepared as 40× stocks in 100% DMSO and diluted directly into the assay (Final DMSO concentration=2.5%). All reactions were performed in polypropylene 384-well plates in a final volume of 0.04 ml. […] The beads were then re-suspended in elution buffer (1×PBS, 0.05% Tween 20, 0.5 μM non-biotinylated affinity ligand) and incubated at room temperature with shaking for 30 minutes. The kinase concentration in the eluates was measured by quantitative PCR. An illustration of the kinase interaction process is presented below. Kd/IC50 values were determined using a standard dose response curve using the hill equation. Curves were fitted using a non-linear least square fit with the Levenberg-Marquardt algorithm.
(§2) The compound(s) were screened at 10 μM and results for primary screen binding interactions are reported as ‘% Ctrl’, where lower numbers indicate stronger hits in the matrix.

KIT(V559D) = target: T2, KIT(V559D) (Homo sapiens, UniProt P10721, V559D); assay: Kinase competition binding assay, KIT(V559D)
T2 construct: made in house
Experimental: as §1, §2

CK2a = target: T3, CK2a (Homo sapiens, UniProt P68400); assay: Kinase competition binding assay, CK2a
T3 construct: made in house
Experimental: as §1, §2

PIK3CA(1800L) = target: T4, PIK3CA(1800L) (Homo sapiens, UniProt P42336, I800L); assay: Kinase competition binding assay, PIK3CA(1800L)
T4 construct: T7 phage fusion (most assays) or DNA tag for qPCR (HEK-293-made kinases); made in house
Experimental: as §1, §2

BIKE = target: T5, BIKE (Homo sapiens, UniProt Q9NSY1); assay: Kinase competition binding assay, BIKE
T5 construct: made in house
Experimental: as §1, §2

PIP5K1A = target: T6, PIP5K1A (Homo sapiens, UniProt Q99755); assay: Kinase competition binding assay, PIP5K1A
T6 construct: T7 phage fusion (most assays) or DNA tag for qPCR (HEK-293-made kinases); made in house
Experimental: as §1, §2

KIT = target: T7, KIT (Homo sapiens, UniProt P10721); assay: Kinase competition binding assay, KIT
T7 construct: made in house
Experimental: as §1, §2

FGR = target: T8, FGR (Homo sapiens, UniProt P09769); assay: Kinase competition binding assay, FGR
T8 construct: made in house
Experimental: as §1, §2

RIOK1 = target: T9, RIOK1 (Homo sapiens, UniProt Q9BRS2); assay: Kinase competition binding assay, RIOK1
T9 construct: T7 phage fusion (most assays) or DNA tag for qPCR (HEK-293-made kinases); made in house
T9 sequence (Q9BRS2 1-568): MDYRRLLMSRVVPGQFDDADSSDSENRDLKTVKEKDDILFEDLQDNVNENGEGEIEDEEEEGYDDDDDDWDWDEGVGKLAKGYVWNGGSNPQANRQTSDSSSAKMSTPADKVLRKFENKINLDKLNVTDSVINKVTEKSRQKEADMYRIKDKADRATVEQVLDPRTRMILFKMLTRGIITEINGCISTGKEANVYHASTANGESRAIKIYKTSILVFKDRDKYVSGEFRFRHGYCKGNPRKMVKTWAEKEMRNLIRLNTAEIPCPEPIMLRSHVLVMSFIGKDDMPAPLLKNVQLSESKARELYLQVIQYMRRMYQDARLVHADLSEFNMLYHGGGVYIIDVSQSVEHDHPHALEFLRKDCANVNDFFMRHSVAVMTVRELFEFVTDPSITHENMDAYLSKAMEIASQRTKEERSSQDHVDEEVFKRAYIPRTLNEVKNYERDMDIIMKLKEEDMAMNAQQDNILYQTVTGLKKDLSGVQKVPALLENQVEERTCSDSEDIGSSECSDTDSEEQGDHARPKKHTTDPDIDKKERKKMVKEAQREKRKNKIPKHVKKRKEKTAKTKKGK
Experimental: as §1, §2

PDGFRa = target: T10, PDGFRa (Homo sapiens, UniProt P16234); assay: Kinase competition binding assay, PDGFRa
T10 construct: catalytic domain constructs for large multi-domain kinases; T7 phage fusion (most assays) or DNA tag for qPCR (HEK-293-made kinases); made in house
Experimental: Cannabis flavonoids and their analogs were subjected to kinase inhibition assay. The compounds were first screened at a single concentration of 10 μM in the primary assay. […]. To determine the kd or IC50 values, competition binding assays were established, authenticated and executed as described previously. Fabian et al., “A Small Molecule-Kinase Interaction Map For Clinical Kinase Inhibitors.”, Nat Biotechnol, 23(3):329-36, Epub (2005). See also, Karaman et al., “A Quantitative Analysis Of Kinase Inhibitor Selectivity”, Nat. Biotechnol. […] For most assays, kinases were fused to T7 phage strains (Fabian, supra) and for the other assays, kinases were produced in HEK-293 cells after which they were tagged with DNA for quantitative PCR detection. In general, full-length constructs were used for small, single domain kinases, and catalytic domain constructs for large multi-domain kinases. The binding assays utilized streptavidin-coated magnetic beads treated with biotinylated small molecule ligands for 30 minutes at room temperature which generated affinity resins for the kinase assays. The liganded beads were blocked with excess biotin and washed with blocking buffer (SeaBlock (Pierce), 1% BSA, 0.05% Tween 20, 1 mM DTT) to remove unbound ligand and to reduce non-specific phage binding. […] Test compounds were prepared as 40× stocks in 100% DMSO and diluted directly into the assay (Final DMSO concentration=2.5%). All reactions were performed in polypropylene 384-well plates in a final volume of 0.04 ml. […] The beads were then re-suspended in elution buffer (1×PBS, 0.05% Tween 20, 0.5 μM non-biotinylated affinity ligand) and incubated at room temperature with shaking for 30 minutes. The kinase concentration in the eluates was measured by quantitative PCR. An illustration of the kinase interaction process is presented below. Kd/IC50 values were determined using a standard dose response curve using the hill equation. Curves were fitted using a non-linear least square fit with the Levenberg-Marquardt algorithm. […]

T6 sequence (Q99755 whole entry, the tested form may be a part): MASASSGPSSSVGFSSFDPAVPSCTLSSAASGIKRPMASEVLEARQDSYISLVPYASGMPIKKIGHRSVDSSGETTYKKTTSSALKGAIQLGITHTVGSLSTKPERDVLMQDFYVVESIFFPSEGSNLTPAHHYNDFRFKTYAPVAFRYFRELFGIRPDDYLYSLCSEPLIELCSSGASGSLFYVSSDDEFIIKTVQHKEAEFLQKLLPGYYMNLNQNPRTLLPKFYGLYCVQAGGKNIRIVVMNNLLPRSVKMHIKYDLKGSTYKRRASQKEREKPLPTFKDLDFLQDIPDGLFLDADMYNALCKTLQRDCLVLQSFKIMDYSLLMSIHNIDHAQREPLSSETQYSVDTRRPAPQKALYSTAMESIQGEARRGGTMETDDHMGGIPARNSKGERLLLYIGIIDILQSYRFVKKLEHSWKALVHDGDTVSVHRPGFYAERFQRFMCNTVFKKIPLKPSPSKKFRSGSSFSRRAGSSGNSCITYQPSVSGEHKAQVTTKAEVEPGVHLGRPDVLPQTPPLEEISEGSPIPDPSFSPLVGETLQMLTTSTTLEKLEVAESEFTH
T10 sequence (P16234 593-954 limits assumed): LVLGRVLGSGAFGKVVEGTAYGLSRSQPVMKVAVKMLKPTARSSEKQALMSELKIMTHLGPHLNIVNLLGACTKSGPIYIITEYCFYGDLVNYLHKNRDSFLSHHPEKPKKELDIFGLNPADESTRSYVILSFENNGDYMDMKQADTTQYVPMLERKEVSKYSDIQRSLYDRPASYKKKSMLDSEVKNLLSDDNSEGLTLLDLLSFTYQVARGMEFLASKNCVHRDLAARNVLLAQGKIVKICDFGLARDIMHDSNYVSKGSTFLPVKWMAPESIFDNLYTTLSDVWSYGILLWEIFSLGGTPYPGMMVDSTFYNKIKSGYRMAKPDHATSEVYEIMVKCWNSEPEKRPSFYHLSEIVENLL
T5 sequence (Q9NSY1 whole entry): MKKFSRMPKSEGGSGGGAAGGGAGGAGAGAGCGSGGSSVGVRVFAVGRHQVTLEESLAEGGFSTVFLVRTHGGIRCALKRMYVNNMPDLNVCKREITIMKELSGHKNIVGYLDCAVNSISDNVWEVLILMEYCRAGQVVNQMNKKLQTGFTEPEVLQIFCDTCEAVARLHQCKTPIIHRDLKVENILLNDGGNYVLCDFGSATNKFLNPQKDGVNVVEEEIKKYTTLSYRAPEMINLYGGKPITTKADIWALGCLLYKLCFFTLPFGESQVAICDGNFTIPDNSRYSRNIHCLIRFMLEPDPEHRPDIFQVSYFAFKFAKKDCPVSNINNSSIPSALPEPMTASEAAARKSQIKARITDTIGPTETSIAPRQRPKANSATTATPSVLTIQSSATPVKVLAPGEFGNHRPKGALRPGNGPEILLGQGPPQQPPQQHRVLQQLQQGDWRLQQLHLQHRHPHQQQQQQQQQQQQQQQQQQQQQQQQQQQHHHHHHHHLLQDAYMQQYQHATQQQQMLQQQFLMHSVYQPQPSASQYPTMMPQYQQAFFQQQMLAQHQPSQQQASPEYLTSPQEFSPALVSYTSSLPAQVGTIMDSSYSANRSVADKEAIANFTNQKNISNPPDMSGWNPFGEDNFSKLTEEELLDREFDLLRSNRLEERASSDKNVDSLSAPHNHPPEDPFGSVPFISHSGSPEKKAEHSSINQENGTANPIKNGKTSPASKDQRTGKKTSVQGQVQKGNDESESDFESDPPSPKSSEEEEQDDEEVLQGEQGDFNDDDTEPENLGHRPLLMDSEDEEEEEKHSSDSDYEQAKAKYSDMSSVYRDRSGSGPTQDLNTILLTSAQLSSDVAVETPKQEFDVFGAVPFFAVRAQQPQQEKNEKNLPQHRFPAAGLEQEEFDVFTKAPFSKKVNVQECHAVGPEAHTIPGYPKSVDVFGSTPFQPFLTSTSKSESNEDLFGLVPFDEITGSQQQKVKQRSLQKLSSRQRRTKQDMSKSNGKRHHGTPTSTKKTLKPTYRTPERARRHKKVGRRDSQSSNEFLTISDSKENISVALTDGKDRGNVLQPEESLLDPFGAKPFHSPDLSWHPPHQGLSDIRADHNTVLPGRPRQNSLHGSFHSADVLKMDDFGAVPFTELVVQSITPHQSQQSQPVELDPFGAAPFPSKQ
T8 sequence (P09769 whole entry): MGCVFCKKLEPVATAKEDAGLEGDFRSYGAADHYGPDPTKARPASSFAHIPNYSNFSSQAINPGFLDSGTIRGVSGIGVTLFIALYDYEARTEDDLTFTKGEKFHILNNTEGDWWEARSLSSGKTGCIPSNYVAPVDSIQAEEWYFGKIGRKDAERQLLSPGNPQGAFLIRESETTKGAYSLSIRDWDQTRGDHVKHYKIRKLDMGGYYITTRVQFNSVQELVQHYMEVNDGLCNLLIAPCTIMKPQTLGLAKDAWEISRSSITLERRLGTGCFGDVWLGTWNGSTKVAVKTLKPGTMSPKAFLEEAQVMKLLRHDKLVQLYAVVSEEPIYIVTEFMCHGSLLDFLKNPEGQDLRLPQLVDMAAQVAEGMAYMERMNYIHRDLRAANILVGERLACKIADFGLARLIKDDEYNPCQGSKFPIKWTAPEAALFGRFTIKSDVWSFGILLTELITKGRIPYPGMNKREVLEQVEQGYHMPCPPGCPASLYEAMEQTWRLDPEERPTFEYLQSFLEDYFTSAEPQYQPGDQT
T7 sequence (P10721 26-976): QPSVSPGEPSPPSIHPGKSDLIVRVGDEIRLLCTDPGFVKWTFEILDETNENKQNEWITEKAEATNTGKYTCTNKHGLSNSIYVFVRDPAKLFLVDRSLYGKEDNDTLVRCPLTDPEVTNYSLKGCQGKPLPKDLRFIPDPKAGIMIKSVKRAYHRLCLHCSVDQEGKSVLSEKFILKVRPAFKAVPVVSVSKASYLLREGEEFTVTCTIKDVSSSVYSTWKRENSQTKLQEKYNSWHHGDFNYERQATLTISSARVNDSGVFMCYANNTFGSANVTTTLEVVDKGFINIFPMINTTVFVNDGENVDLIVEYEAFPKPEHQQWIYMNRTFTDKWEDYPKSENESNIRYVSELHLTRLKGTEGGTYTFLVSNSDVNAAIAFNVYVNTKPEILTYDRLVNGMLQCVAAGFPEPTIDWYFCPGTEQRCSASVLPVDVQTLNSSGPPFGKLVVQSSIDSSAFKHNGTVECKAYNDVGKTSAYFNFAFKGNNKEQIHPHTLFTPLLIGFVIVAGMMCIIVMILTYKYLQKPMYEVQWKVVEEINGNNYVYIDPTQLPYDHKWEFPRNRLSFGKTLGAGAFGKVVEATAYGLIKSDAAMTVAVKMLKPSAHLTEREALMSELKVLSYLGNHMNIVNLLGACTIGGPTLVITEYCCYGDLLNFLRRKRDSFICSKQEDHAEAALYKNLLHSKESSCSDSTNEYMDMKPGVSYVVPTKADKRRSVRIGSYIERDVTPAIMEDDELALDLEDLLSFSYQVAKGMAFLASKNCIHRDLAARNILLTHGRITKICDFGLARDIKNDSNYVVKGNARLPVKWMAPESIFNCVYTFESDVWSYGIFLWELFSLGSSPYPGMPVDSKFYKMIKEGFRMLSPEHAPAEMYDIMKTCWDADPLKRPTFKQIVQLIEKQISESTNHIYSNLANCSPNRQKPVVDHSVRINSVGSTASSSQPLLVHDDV
T3 sequence (P68400 whole entry): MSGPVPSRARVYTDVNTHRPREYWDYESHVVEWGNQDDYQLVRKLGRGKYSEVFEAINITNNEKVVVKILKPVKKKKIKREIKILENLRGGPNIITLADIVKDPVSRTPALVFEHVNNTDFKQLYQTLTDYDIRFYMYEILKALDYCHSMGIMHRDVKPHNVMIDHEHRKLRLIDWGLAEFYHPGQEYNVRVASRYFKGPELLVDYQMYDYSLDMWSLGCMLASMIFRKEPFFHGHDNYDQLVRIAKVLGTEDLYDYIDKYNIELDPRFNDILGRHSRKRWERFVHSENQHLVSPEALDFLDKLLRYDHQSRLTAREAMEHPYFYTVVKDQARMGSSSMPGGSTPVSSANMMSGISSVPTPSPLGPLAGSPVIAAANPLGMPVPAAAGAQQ
T4 sequence (P42336 whole entry I800L, the tested form may be a part): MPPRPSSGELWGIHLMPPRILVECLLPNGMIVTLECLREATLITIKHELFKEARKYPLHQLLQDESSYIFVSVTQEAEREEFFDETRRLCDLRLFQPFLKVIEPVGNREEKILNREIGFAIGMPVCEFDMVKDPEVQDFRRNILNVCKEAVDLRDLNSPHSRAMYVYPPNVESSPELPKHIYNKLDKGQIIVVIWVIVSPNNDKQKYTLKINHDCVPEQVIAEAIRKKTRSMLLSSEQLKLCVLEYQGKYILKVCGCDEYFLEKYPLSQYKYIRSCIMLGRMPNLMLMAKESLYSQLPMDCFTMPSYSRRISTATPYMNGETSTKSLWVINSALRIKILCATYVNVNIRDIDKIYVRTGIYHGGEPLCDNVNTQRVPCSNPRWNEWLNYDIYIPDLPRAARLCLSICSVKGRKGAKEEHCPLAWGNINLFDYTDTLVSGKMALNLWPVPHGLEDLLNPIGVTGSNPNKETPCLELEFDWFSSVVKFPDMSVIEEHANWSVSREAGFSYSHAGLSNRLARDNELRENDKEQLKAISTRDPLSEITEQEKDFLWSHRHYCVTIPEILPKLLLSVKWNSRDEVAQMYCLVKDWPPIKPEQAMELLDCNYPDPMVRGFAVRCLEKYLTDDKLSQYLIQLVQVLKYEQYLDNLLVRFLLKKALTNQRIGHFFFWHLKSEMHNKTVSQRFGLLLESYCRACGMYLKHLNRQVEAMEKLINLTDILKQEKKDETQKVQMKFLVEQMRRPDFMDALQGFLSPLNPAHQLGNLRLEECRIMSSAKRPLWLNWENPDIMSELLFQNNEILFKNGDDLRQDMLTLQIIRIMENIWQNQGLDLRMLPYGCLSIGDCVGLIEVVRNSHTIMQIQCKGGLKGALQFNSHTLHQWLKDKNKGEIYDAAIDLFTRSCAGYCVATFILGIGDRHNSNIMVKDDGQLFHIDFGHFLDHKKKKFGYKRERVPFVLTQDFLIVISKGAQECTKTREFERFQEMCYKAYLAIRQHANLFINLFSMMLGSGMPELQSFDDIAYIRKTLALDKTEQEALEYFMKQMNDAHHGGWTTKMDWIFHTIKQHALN
T2 sequence (P10721 26-976 V559D): as the sequence (P10721 26-976) above, with V534D counted along it

Row | SMILES | IC50 (Aurora A) [nM] | IC50 (KIT(V559D)) [nM] | IC50 (CK2a) [nM] | IC50 (PIK3CA(1800L)) [nM] | IC50 (BIKE) [nM] | IC50 (PIP5K1A) [nM] | IC50 (KIT) [nM] | IC50 (FGR) [nM] | IC50 (RIOK1) [nM] | IC50 (PDGFRa) [nM]
1 | COc1cc(-c2cc(=O)c3c(O)c(C/C=C(\C)CCC=C(C)C)c(O)cc3o2)ccc1O [FBL-03A] | 730 | 200 | 740 | > 20000 | > 20000 | > 20000 | 350 | > 20000 | > 20000 | –
2 | COc1cc(-c2cc(=O)c3c(O)c(CC=C(C)C)c(O)cc3o2)ccc1O [FBL-03B] | 12 | < 1000 | 768 | – | > 20000 | > 10000 | < 1000 | 224 | > 10000 | 982
3 | COc1cc(-c2cc(=O)c3c(O)cc(O)c(C/C=C(\C)CCC=C(C)C)c3o2)ccc1O [FBL-03C] | – | > 1000 | 58 | 780 | 21 | 360 | > 1000 | > 20000 | 340 | –
4 | COc1ccc(-c2cc(=O)c3c(O)c(C/C=C(\C)CCC=C(C)C)c(O)cc3o2)cc1OC [FBL-03D] | > 30000 | > 30000 | > 30000 | > 30000 | > 30000 | > 30000 | > 30000 | > 30000 | > 30000 | > 30000
5 | COc1cc(-c2cc(=O)c3c(O)cc(O)c(CC=C(C)C)c3o2)ccc1O [FBL-03G] | 1090 | < 1000 | 38 | > 20000 | > 20000 | > 20000 | < 1000 | 880 | > 20000 | 5920
